Measured values as given in BigSolDB 2.1.

COC(=O)/C=C(\C)N[C@@H](C(=O)[O-])c1ccc(O)cc1.[K+]
Settings | solubility (mole fraction)
in 2-pentanol, 293.25 K | 6.22e-05
in 2-pentanol, 298.28 K | 7.86e-05
in 2-pentanol, 303.35 K | 9.99e-05
in 2-pentanol, 308.19 K | 0.000117
in 2-pentanol, 313.15 K | 0.000141
in 2-pentanol, 318.29 K | 0.000169
in 2-pentanol, 323.15 K | 0.000196
in 2-pentanol, 328.34 K | 0.000233
in 2-pentanol, 333.05 K | 0.000267
in 2-pentanol, 338.24 K | 0.00031
in 2-pentanol, 343.26 K | 0.000354
in ethanol, 293.25 K | 0.000405
in ethanol, 298.26 K | 0.000437
in ethanol, 303.25 K | 0.000478
in ethanol, 308.19 K | 0.000519
in ethanol, 313.09 K | 0.00056
in ethanol, 318.26 K | 0.000629
in ethanol, 323.11 K | 0.000681
in ethanol, 328.18 K | 0.000753
in ethanol, 333.41 K | 0.000834
in ethanol, 338.31 K | 0.000916
in ethanol, 343.35 K | 0.00104
in isopropanol, 293.25 K | 5.74e-05
in isopropanol, 298.23 K | 6.38e-05
in isopropanol, 303.05 K | 7.22e-05
in isopropanol, 308.41 K | 8.4e-05
in isopropanol, 313.15 K | 9.66e-05
in isopropanol, 318.26 K | 0.000112
in isopropanol, 323.15 K | 0.00013
in isopropanol, 328.19 K | 0.00015
in isopropanol, 333.35 K | 0.000173
in isopropanol, 338.27 K | 0.000198
in isopropanol, 343.25 K | 0.000225
in methanol, 293.15 K | 0.00346
in methanol, 298.22 K | 0.0037
in methanol, 303.15 K | 0.00396
in methanol, 308.19 K | 0.00424
in methanol, 313.35 K | 0.00454
in methanol, 318.27 K | 0.00485
in methanol, 323.35 K | 0.00519
in methanol, 328.16 K | 0.00552
in methanol, 333.35 K | 0.006
in n-butanol, 293.15 K | 9.97e-05
in n-butanol, 298.31 K | 0.00011
in n-butanol, 302.95 K | 0.000122
in n-butanol, 308.19 K | 0.000139
in n-butanol, 312.95 K | 0.000158
in n-butanol, 318.16 K | 0.000181
in n-butanol, 323.25 K | 0.000207
in n-butanol, 328.29 K | 0.000237
in n-butanol, 333.17 K | 0.000268
in n-butanol, 338.32 K | 0.000304
in n-butanol, 342.95 K | 0.000339
in n-pentanol, 293.05 K | 8.48e-05
in n-pentanol, 298.25 K | 0.000102
in n-pentanol, 303.25 K | 0.000119
in n-pentanol, 308.19 K | 0.000134
in n-pentanol, 313.07 K | 0.000152
in n-pentanol, 318.26 K | 0.00017
in n-pentanol, 323.25 K | 0.00019
in n-pentanol, 328.17 K | 0.000209
in n-pentanol, 333.25 K | 0.000226
in n-pentanol, 338.13 K | 0.000252
in n-pentanol, 343.35 K | 0.000279
in n-propanol, 293.15 K | 0.000178
in n-propanol, 298.23 K | 0.000191
in n-propanol, 303.05 K | 0.000206
in n-propanol, 308.18 K | 0.000228
in n-propanol, 313.05 K | 0.000256
in n-propanol, 318.29 K | 0.00028
in n-propanol, 323.05 K | 0.000306
in n-propanol, 328.21 K | 0.000345
in n-propanol, 333.25 K | 0.000382
in n-propanol, 338.34 K | 0.000427
in n-propanol, 343.35 K | 0.000476
in sec-butanol, 293.35 K | 3.51e-05
in sec-butanol, 298.24 K | 4.38e-05
in sec-butanol, 303.05 K | 5.87e-05
in sec-butanol, 308.17 K | 6.64e-05
in sec-butanol, 313.05 K | 8.11e-05
in sec-butanol, 318.36 K | 9.62e-05
in sec-butanol, 323.23 K | 0.000113
in sec-butanol, 328.26 K | 0.000132
in sec-butanol, 333.15 K | 0.000151
in sec-butanol, 338.28 K | 0.000174
in sec-butanol, 343.23 K | 0.000197
